Experimental data taken from the NIST ThermoML archive (doi:10.1016/j.jct.2014.05.016).

Experiment: xn = mol fraction of the nth substance listed
Details: 100 kPa, Liquid; for viscosity: Concentric cylinders viscometry; for mass density: Vibrating tube method

C[n+]1ccn(CCO)c1.F[B-](F)(F)F [1-(2-hydroxyethyl)-3-methylimidazolium tetrafluoroborate] + CCCC[n+]1ccccc1.F[B-](F)(F)F
Details	mass density [kg/m3]	viscosity [mPa·s]
293.15 K, x1 = 0.1003	1229	218.7
293.15 K, x1 = 0.2001	–	205.9
293.15 K, x1 = 0.2004	1242.4	–
293.15 K, x1 = 0.2997	–	193.9
293.15 K, x1 = 0.3003	1255.9	–
293.15 K, x1 = 0.3999	1269.7	184.2
293.15 K, x1 = 0.4996	–	176.1
293.15 K, x1 = 0.5007	1284.2	–
293.15 K, x1 = 0.5991	1298.7	169.5
293.15 K, x1 = 0.6954	1313.4	–
293.15 K, x1 = 0.6997	–	164.2
293.15 K, x1 = 0.7997	1329.9	–
293.15 K, x1 = 0.7999	–	159.9
293.15 K, x1 = 0.8996	1346.1	–
293.15 K, x1 = 0.8998	–	155.4
293.15 K, x1 = 1	1362.4	153.6
298.15 K, x1 = 0.1003	1225.5	160.4
298.15 K, x1 = 0.2001	–	151.5
298.15 K, x1 = 0.2004	1238.9	–
298.15 K, x1 = 0.2997	–	143.4
298.15 K, x1 = 0.3003	1252.3	–
298.15 K, x1 = 0.3999	1266.1	136.7
298.15 K, x1 = 0.4996	–	131.1
298.15 K, x1 = 0.5007	1280.6	–
298.15 K, x1 = 0.5991	1295.1	126.4
298.15 K, x1 = 0.6954	1309.8	–
298.15 K, x1 = 0.6997	–	122.7
298.15 K, x1 = 0.7997	1326.1	–
298.15 K, x1 = 0.7999	–	119.5
298.15 K, x1 = 0.8996	1342.3	–
298.15 K, x1 = 0.8998	–	116
298.15 K, x1 = 1	1358.7	115.1
303.15 K, x1 = 0.1003	1222	120.3
303.15 K, x1 = 0.2001	–	114.2
303.15 K, x1 = 0.2004	1235.4	–
303.15 K, x1 = 0.2997	–	108.5
303.15 K, x1 = 0.3003	1248.8	–
303.15 K, x1 = 0.3999	1262.5	104
303.15 K, x1 = 0.4996	–	99.88
303.15 K, x1 = 0.5007	1277	–
303.15 K, x1 = 0.5991	1291.4	96.68
303.15 K, x1 = 0.6954	1306.1	–
303.15 K, x1 = 0.6997	–	94.02
303.15 K, x1 = 0.7997	1322.4	–
303.15 K, x1 = 0.7999	–	91.38
303.15 K, x1 = 0.8996	1338.6	–
303.15 K, x1 = 0.8998	–	88.75
303.15 K, x1 = 1	1354.8	87.98
308.15 K, x1 = 0.1003	1218.7	92.07
308.15 K, x1 = 0.2001	–	87.89
308.15 K, x1 = 0.2004	1231.9	–
308.15 K, x1 = 0.2997	–	83.89
308.15 K, x1 = 0.3003	1245.3	–
308.15 K, x1 = 0.3999	1259	80.56
308.15 K, x1 = 0.4996	–	77.78
308.15 K, x1 = 0.5007	1273.4	–
308.15 K, x1 = 0.5991	1287.9	75.21
308.15 K, x1 = 0.6954	1302.4	–
308.15 K, x1 = 0.6997	–	73.36
308.15 K, x1 = 0.7997	1318.8	–
308.15 K, x1 = 0.7999	–	71.46
308.15 K, x1 = 0.8996	1334.9	–
308.15 K, x1 = 0.8998	–	69.32
308.15 K, x1 = 1	1351.2	68.59
313.15 K, x1 = 0.1003	1215.2	71.96
313.15 K, x1 = 0.2001	–	69.99
313.15 K, x1 = 0.2004	1228.4	–
313.15 K, x1 = 0.2997	–	66.1
313.15 K, x1 = 0.3003	1241.8	–
313.15 K, x1 = 0.3999	1255.5	63.68
313.15 K, x1 = 0.4996	–	61.56
313.15 K, x1 = 0.5007	1269.9	–
313.15 K, x1 = 0.5991	1284.4	59.69
313.15 K, x1 = 0.6954	1298.8	–
313.15 K, x1 = 0.6997	–	58.34
313.15 K, x1 = 0.7997	1315.1	–
313.15 K, x1 = 0.7999	–	56.8
313.15 K, x1 = 0.8996	1331.2	–
313.15 K, x1 = 0.8998	–	55.18
313.15 K, x1 = 1	1347.4	54.81
318.15 K, x1 = 0.1003	–	57.27
318.15 K, x1 = 0.2001	–	55.12
318.15 K, x1 = 0.2997	–	52.99
318.15 K, x1 = 0.3999	–	51.21
318.15 K, x1 = 0.4996	–	49.63
318.15 K, x1 = 0.5991	–	48.25
318.15 K, x1 = 0.6997	–	47.11
318.15 K, x1 = 0.7999	–	45.99
318.15 K, x1 = 0.8998	–	44.69
318.15 K, x1 = 1	–	44.44
